# According to a melting point compilation (Tetko et al.; mined from patent text by program, amines drawn as free bases though some values may be those of a salt):
row,SMILES,melting point [°C]
1,Cc1c(C)c2c(c(C)c1NC(=O)CC(C)(C)C)C(C)(c1ccc(C(C)C)cc1)CO2 (stereo not drawn),194 to 195
2,CCCc1sc(-c2ccccc2)nc1OC(=O)NC,55 to 58
3,COc1ccc(Cl)cc1NC(=O)NCc1ccc2c(c1)CN(C1CCC(=O)NC1=O)C2=O (stereo not drawn),283 to 285
4,CNC1c2c(O)c(C)cc(C)c2C2CCCCC21 (stereo not drawn),110 to 111
5,Cn1cc(C=CC(=O)NO)c([N+](=O)[O-])n1,172 to 174
6,O[C@H]1CC[C@@H](Nc2ncc3ncnc(Nc4ccc(F)c(Cl)c4)c3n2)CC1,270 to 275
7,COC(=O)C1=C(C)NC(CC(=O)N2CCN(C3CC4CCC(C3)N4Cc3ccccc3OC)CC2)=C(C(=O)OC)C1c1c(Cl)cccc1Cl (stereo not drawn),205 to 213
8,COc1nc(N)nc2c1ncn2[C@@H]1O[C@H](CO)[C@@H](O)[C@@]1(C)F,199 to 202
9,CC(C)(C)c1cc(CSCCC(=O)NCCCCCCNC(=O)CCSCc2cc(C(C)(C)C)c(O)c(C(C)(C)C)c2)cc(C(C)(C)C)c1O,126 to 130
10,CNc1c(F)cc2c(=O)c(C(=O)O)cn(-c3nc(NCCO)c(F)cc3F)c2c1Cl,201 to 205
11,COC1CC(n2cc(C=CBr)c(=O)[nH]c2=O)OC1CF (stereo not drawn),177
12,CCCCCCCCCCCCCCCCSCc1ccc(N(C)C)cc1,41 to 43
13,c1ccc(CN2CC3(COc4cc5c(cc43)CCO5)c3c(-c4cccnc4)cccc32)nc1 (stereo not drawn),> 200
14,O=C1CC2(C(=O)N1)C(=O)N(Cc1ccc(Cl)c(Cl)c1)c1ccc(F)cc12 (stereo not drawn),253 to 254
15,CN1CCN(C(=O)c2cc(S(=O)(=O)NC3CCCCC3)ccc2N)CC1,167 to 168
16,CC(C)CC(CS)C(=O)NCCCCCCCC(=O)N[C@@H](CCCNC(=N)N)C(=O)O (stereo partly drawn),102 to 130
17,Oc1cc(CCl)nc(C(Cl)(Cl)Cl)n1,138 to 144
18,CCCCC(CCCC)(CC(=O)Nc1cccc(OCc2ccc3ccc(F)cc3n2)c1)C(=O)O,156 to 157
19,CN(C)Cc1ccc(CNC(=O)C2Cc3ccccc3N2S(=O)(=O)c2ccc(-c3cccc(C(F)(F)F)c3)cc2)cc1 (stereo not drawn),70
20,O=C(C#Cc1ccc(C(F)(F)F)cc1Cl)Nc1ccc2nc(N3CCCCC3)ccc2c1,176 to 179
21,CCN(CC)CCOc1ccc(Nc2ncc3c(n2)N(c2ccccc2)C(=O)N(c2c(Cl)cccc2Cl)C3)cc1,162 to 163

row,SMILES,melting point [°C]
1,NNc1c(F)c(F)c(C(F)(F)F)c(F)c1Cl,91 to 92
2,CCc1nc(N)nc(N)c1-c1ccc(NC)c([N+](=O)[O-])c1,262 to 265
3,COc1ccc(C=Cc2ccc([N+](=O)[O-])cc2C(F)(F)F)cc1,120 to 123
4,COc1cc(C=O)cc(OC)c1C(C)(C)O,55
5,COc1ccc(N2CCN(c3c(C)c(C)c4c(c3-c3ccoc3)CC(C)(C)O4)CC2)cc1,192 to 195
6,CC(C)(C)c1cc(SCCOC(=O)c2cc(C(C)(C)C)c(O)c(C(C)(C)C)c2)cc(C(C)(C)C)c1O,136 to 139
7,FC(F)(F)c1cccc2nc3c4ccccc4c4ccccc4c3nc12,195 to 196
8,CCOc1cc2c(cc1O[Si](C)(C)C(C)(C)C)C(=O)CC1C2CCC2(C)C(O[Si](C)(C)C(C)(C)C)CCC12 (stereo not drawn),150 to 151
9,CCCCS(=O)(=O)Nc1ccc(CCCCOCCCCCCNCC(O)c2ccc(O)c(CO)n2)cc1 (stereo not drawn),55 to 57
10,C1=CC(c2ccccc2)(c2ccc(N3CCOCC3)cc2)Oc2cc(N3CCOCC3)c3ccccc3c21 (stereo not drawn),187 to 188
11,CS(=O)C1C(O)C(CO)OC1n1ccc(=O)[nH]c1=O (stereo not drawn),219 to 221
12,COc1cc(OCCN2CCCC2)cc2nc(-c3cc(C)nc(C)c3)[nH]c(=O)c12,227 to 229
13,COc1ccc(C2(c3ccc(OC)cc3)C(c3ccccc3)C2(Cl)Cl)cc1 (stereo not drawn),124 to 125
14,C=CCONC(=O)c1nc(-c2ccc(Cl)c(OC)c2F)nc(N)c1C=C,98 to 101
15,COc1cnn(-c2cc(Cl)cc(Cl)c2)c(=O)n1,164
16,CCC1C=CCCC1C(O)C(N)=O (stereo not drawn),156 to 158
17,O=[N+]([O-])c1c(O)c(Cl)cc(F)c1-c1ncc(C(F)(F)F)cc1Cl,67 to 72
18,Cc1c(S(N)(=O)=O)c(C(F)(F)F)nn1C,204 to 206
19,COc1cc(C2CCN(C)CC2)ccc1-c1nc2c(N[C@H]3[C@@H](C(N)=O)[C@@H]4C=C[C@H]3C4)c(Cl)cnc2[nH]1,232 to 235
20,c1ccc(OCCSCc2nnc(-c3ccc(OCc4ccncc4)cc3)o2)cc1,80 to 90

# The next lines start with the values.
row,melting point [°C],SMILES
1,117 to 118,CC1(c2cccc(NS(C)(=O)=O)c2)C2CN(Cc3ccccc3)CC21 (stereo not drawn)
2,107 to 108,CCOC(=O)Cn1c(-c2ccc(OC)cc2)nc2cccnc21
3,144 to 145,Cc1nsc(NC(=O)Cc2ccc3oc(CC(C)(C)C)nc3c2)c1Cl
4,58 to 60,CC(=O)c1ccc2c(c1)CCc1ccccc1-2
5,144 to 145,CC1Cc2cc(N3C[C@H](CO)OC3=O)ccc2N1C(=O)OCc1ccccc1 (stereo partly drawn)
6,85,C#CCOc1ccc(CCNC(=O)C(O)Cc2ccc(C)cc2)cc1OC (stereo not drawn)
7,252 to 253,CCn1nc(-c2ccncc2)c(C(C)=O)c(Nc2ccc(C(=O)O)cc2)c1=O
8,90 to 92,COc1cc(/C=C/C(=O)Nc2ccccc2C(=O)O)ccc1OC1CCCCC1
9,95 to 97,CCOc1ccc(C=CC(C)=O)cc1OC
10,98 to 99,O=C(O)CCc1ccccc1OCCCCCOc1ccc2c(c1CCCc1ccccc1)OCCC2=O
11,122,CCCCCCCc1cn2cc(-c3ccc(O)cc3)nc2s1
12,104 to 106,CC(=O)c1ccc(OCCCCOc2ccccc2)cc1
13,135 to 137,O=[N+]([O-])c1ccc(C(O)CSCc2ccncc2)cc1 (stereo not drawn)
14,216 to 217,Cc1nc(NC(=O)c2ccccc2)sc1C(=O)NCc1cccc(F)c1
15,79 to 83,CC(C)(C)OC(=O)Nc1ccc(-c2ccc(OCc3ccccc3)nc2)cc1NC(=O)CC(=O)c1cccc(-n2ccnc2)c1
16,164 to 165,O=C(O)CCn1c(=S)sc2ccccc21
17,91 to 92,CC(C)(C)OC(=O)NCCc1ccc(OCCC2Oc3ccccc3N(Cc3cccc(Cl)c3)C2=O)cc1 (stereo not drawn)
18,99 to 110,CCNC(=O)c1ccccc1Nc1nc(Nc2cc3c(cc2OC)CCN(CC(=O)NC)CC3)ncc1Cl
19,92 to 94,Nc1ncc(-c2ccccc2)nc1SC1CCCC1

row,melting point [°C],SMILES
1,177 to 178,CCCCc1cc(O)n2nccc2n1
2,248 to 250,CC1(C)Oc2ccc(C#N)cc2C(n2ccc(O)cc2=O)C1O (stereo not drawn)
3,112,CCOC(=O)C1CSCCN1C(=O)Nc1ccc(Cl)cc1F (stereo not drawn)
4,164 to 165,CC(=O)N1CCN(C)C1C(c1ccccc1)c1ccccc1 (stereo not drawn)
5,143 to 144,COc1ccc(S(=O)(=O)Nc2ccccc2NC=O)cc1
6,49.5 to 50,O=Cc1ccc(OCCBr)cc1
7,173 to 175,CCCc1nnc2c(Cl)nc3ccccc3n12
8,208,NCCc1cccc(N2C(=O)N(c3c(Cl)cccc3Cl)Cc3cnc(Nc4ccccc4)nc32)c1
9,63 to 64,N#Cc1ccc(NCc2cccc(F)c2)cc1
10,140,COc1ccc2ccc(N3C(=O)c4ccccc4C3CC(=O)C3CCCCC3)nc2n1 (stereo not drawn)
11,87 to 89,CCn1cc(-c2ccccc2)c(=O)c(-c2cccc(C)c2)c1
12,223 to 227,O=C(Cc1ccc([N+](=O)[O-])cc1)c1c(O)c2cccnc2n(-c2ccccc2)c1=O
13,217 to 221,O=C1Nc2cc(CN3CCC(c4ccccc4)CC3)ccc2OC1F (stereo not drawn)
14,> 300,O=C(O)c1cc2c(-c3ccncc3)nccc2[nH]c1=O
15,63 to 65,COc1cc(OC)nc(Oc2cccc(O)c2C(=O)OCc2ccccc2)n1
16,101 to 103,CC1(C)CC(=O)C(C(=O)NS(=O)(=O)c2ccccc2)C(=O)C1
17,123 to 124,CCCCCC(COc1ccc(C(=O)O)cc1)c1ccc2c(c1)SCCC2(C)C (stereo not drawn)
18,176 to 179,Cc1nnc(Sc2nc3cc(C(=O)c4ccccc4)ccc3nc2C(F)(F)F)s1
19,120 to 122,O=C(CCl)c1ccc2c(c1)CN(C(=O)C(F)(F)F)CC2

row,melting point [°C],SMILES
1,70 to 72,CC(F)(F)CCc1ccccc1S(N)(=O)=O
2,220 to 224,NC(=O)c1[nH]c2ccc(C(O)(C(F)(F)F)C(F)(F)F)cc2c1-c1ccccc1
3,326,Cc1ccc(Sc2cc(C(=O)O)ccc2C(=O)O)cc1
4,202 to 203,CC(=O)Nc1ccc(S(=O)(=O)N(C)c2ccc(O)cc2)cc1
5,52 to 54,CCn1c(=O)ccc2ccccc21
6,124 to 129,NCc1cccc(OCCC2Oc3ccccc3N(Cc3cccc(Cl)c3)C2=O)c1 (stereo not drawn)
7,113 to 114,CCOC(=O)C(C)(C)n1c(=O)c2ccccc2n(CCCCBr)c1=O
8,256 to 257,CCOc1cc(-n2nc(C(=O)O)cc2-c2ccc(-c3ccco3)cc2)ccc1S(C)(=O)=O
9,250,CCN1CCCC1CNC(=O)Cc1ccc(-c2ccc3c(=O)c(C(=O)NC)c(C)n(CC)c3n2)s1 (stereo not drawn)
10,206 to 208,O=C1c2ccccc2C(O)(c2ccc(Cl)cc2)N1CCc1ccc([N+](=O)[O-])cc1 (stereo not drawn)
11,112 to 114,Cc1cccc2sc(-n3nc(CCCO)cc3-c3ccc(Cl)cc3)nc12
12,215 to 218,O=C(O)c1cc(-c2ccc3c(c2)CCO3)nn(Cc2ccc(F)cc2)c1=O
13,251 to 252,CCn1c(=O)c2[nH]c(C(C)=Cc3ccccc3)nc2n(CC)c1=O
14,212 to 214,O=C(Nc1ccc(O)cc1)Nc1cc(Cl)ccc1C(=O)O
15,173 to 174,CC(Sc1nc(N)c(Br)c(Cl)n1)c1cc2ccccc2cn1 (stereo not drawn)
16,231 to 234,Cn1c(COc2ccc(C#N)cc2)nc2nc(C=O)ccc21
17,130 to 133,Cc1ccc(C(=O)COC(=O)NC(C)C)cc1
18,202,COc1ccc(CS(=O)CC(=O)NO)cc1OC (stereo not drawn)
19,217 to 219,CCOCn1cc(Cl)c(O)cc1=O
